# Measurements: patent publication US8431528B2, “Antibacterial Lactobacillus GG peptides and methods of use” (priority 2008, dated 2013)
# Read-outs that look alike come from different tables or passages of the source. Ends that are not written are not given here.
# Legend:
# [1] = tested on: methicillin-resistant Staphylococcus aureus (MRSA); type: cell-based; settings: MRSA growth (FIG. 11)
# Source text: LGG CM (19.7×10^12 CFU/ML) as positive control.
# [2] = tested on: Tetracycline-resistant E. coli TOPO10; settings: Tetracycline-resistant E. coli 8.7×10^13 CFU/ML, 3 hours, A600
# Description: TOPO10 (8.76×10^13) 10 ml+100 ml peptide (in LB)+900 ml LB, mixed, incubated at 37° C., 225 rpm for 3 hours, at the end, measure A600 and calculation the inhibition rate. […] LGG CM (9.7×10^12 CFU/ML) as positive control.
# (§1) SM 10_pir (2.6×10^13CFU) or TOPO10 (8.76×10^13) 10 μl, peptides solution 100 μl and (peptides dissolved in LB broth) were added into 900 ul LB broth, mixed, incubated at 37° C., for 3 hours with shaking at 225 rpm, measure the A600 at the end. Relative inhibition activity was calculated according to the following formula (1−A600 of sample group/A600 of control group)×100%.
# [3] = tested on: Salmonella typhi; assay: Colony-count relative inhibition of Salmonella growth by peptide NPSRQERR; type: cell-based; settings: S. typhi 38×10^6 CFU/mL; 3 hours, then overnight colony count
# [4] = tested on: Staphylococcus aureus; assay: Colony-count relative inhibition of Staphylococcus growth by peptide NPSRQERR; type: cell-based
# [5] = tested on: Kanamycine-resistant E. coli SM10_pir; settings: Kanamycine-resistant E. coli 2.6×10^13 CFU/ML, 3 hours, A600
# Description: SM10_pir (2.6×10^13) 10 ml+100 ml peptide (in LB)+900 ml LB, mixed, incubated at 37° C., 225 rpm for 3 hours, at the end, measure A600 and calculation the inhibition rate. […] LGG CM (9.7×10^12 CFU/ML) as positive control.
# as §1
# [6] = tested on: E. coli EAEC 042; type: cell-based; settings: EAEC 042, 3 h
# Description: FIGS. 6A-6B show: EAEC 042 growth time-course (FIG. 6A). Ten microliters of E. coli (2.16×10^14 CFU/mL) were added in 1 mL LB broth and incubated in 37° C., shaking at 225 rpm, measuring A600 every 30 minutes. […] Ten microliters of EAEC 042 (7.7×10^12CFU/mL) were added to 1 mL LB broth mixed, and 100 mL of each peptide solution dissolved in MRS was added to the mixture. MRS alone (100 mL) and LGG CM (100 mL) (initial concentration 19.7×10^12CFU/mL) were used as negative and positive controls, respectively. The mixture was cultured for 3 hours and the A600 measured at the end of incubation. Also shown is the mean percentage inhibition ±SD. N=3 for all synthetic peptides tested. N=7 for LGG CM.
# The assay was performed as described (12), with minor modifications. Briefly, 10 mL E. coli EAEC 042 (7.7×10^14CFU/mL) was added to 1.0 mL LB Broth, mixed, and 100 mL of each LGG-derived synthetic peptide solution dissolved in MRS (for peptide final concentration see FIG. 6B) was added to the mixture. MRS alone (100 mL) and LGG CM 100 mL (LGG concentration: 19.7×10^12 CFU/mL) were used as negative and positive controls, respectively. The mixture was cultured for 3 hours with shaking at 225 rpm, 37° C., measuring A600 at the end.
substance,measurement,setting,value
NPSRQEFF (peptide sequence SEQ ID NO 1 where residues 7 and 8 are both replaced with Phe for a zero net charge) [variant of NPSRQERR with net positive charge decreased from 2 to 0],inhibition activity lost relative to NPSRQERR,[1]; net positive charge decreased from 2 to 0,12%
NPSRQERR [NPSRQERR],inhibition rate,[2]; peptide 2.76 mM,69.08%
same,peptide concentration at which 100% inhibition was reached,[3],8 mmol/L
same,peptide concentration at which 100% inhibition was reached,"[4]; S. aureus 44×10^6 CFU/mL, 3 hours, then overnight colony count",64 mmol/L
same,effect on S. aureus,[4]; compared with E. coli EAEC 042,less pronounced but dose dependent
same,inhibition rate,[5]; peptide 2.76 mM,43.75%
same,E. coli growth inhibition,[6],81.4%
NPSRQQRR (antibacterial peptide isolated from Lactobacillus GG) [variant of NPSRQERR with net positive charge increased from 2 to 3],inhibition activity increased relative to NPSRQERR,[1]; net positive charge increased from 2 to 3,16.5%
PDENK [PDENK],inhibition rate,[2]; peptide 3.31 mM,81.4%
same,inhibition rate,[5]; peptide 3.31 mM,68.54%
same,E. coli growth inhibition,[6],68.7%
VHTAPK [VHTAPK],inhibition rate,[2]; peptide 3.25 mM,48.53%
same,inhibition rate,[5]; peptide 3.25 mM,29.45%
same,E. coli growth inhibition,[6],30%
